{"source": "patent US20030225129A1", "about": "“Polymorphs of clopidogrel hydrogensulfate” (priority 2002, published 2003)", "origin": "cited, not measured here", "key": {"[1]": {"details": "in vivo"}, "platelet activity": {"system": "platelet activity", "details": "after administration"}}}
{"smiles": "COC(=O)[C@H](c1ccccc1Cl)N1CCc2sccc2C1", "note": "[clopidogrel, methyl (+)-(S)-∝-(o-chlorophenyl)-6,7-dihydrothieno[3,2-c]pyridine-5(4H)-acetate]", "values": [{"measurement": "effectiveness relative to aspirin at stated dosages", "setting": "platelet aggregation; 75 mg of base equivalent versus 325 mg of aspirin", "value": "more effective"}, {"measurement": "effectiveness in blocking platelet aggregation relative to aspirin", "setting": "platelet aggregation; versus aspirin, even at much lower dosage", "value": "more effective in blocking platelet aggregation than aspirin"}, {"measurement": "gastrointestinal bleeding relative to aspirin", "setting": "[1]", "value": "much less gastrointestinal bleeding than aspirin"}, {"measurement": "duration of antiplatelet activity", "setting": "platelet activity", "value": "up to ten days after administration"}]}
